# Assay results as given in patent US6610846B1, “Heteroaromatic glucokinase activators” (Hoffman-La Roche Inc., priority 1999, dated 2003).
row,Compound,melting point [°C]
1,"O=C(Nc1ncco1)C(CC1CCCC1)c1ccc(Cl)c(Cl)c1 (stereo not drawn) [Example 57, 3-Cyclopentyl-2-(3,4-dichlorophenyl)-N-oxazol-2-yl-propionamide]",134 to 136
2,"O=C(Nc1cccnn1)C(CC1CCCC1)c1ccc(Cl)c(Cl)c1 (stereo not drawn) [Example 58, 3-Cyclopentyl-2-(3,4-dichlorophenyl)-N-pyridazin-3-yl-propionamide]",70 to 71
3,"O=C(Nc1ncccn1)C(CC1CCCC1)c1ccc(Cl)c(Cl)c1 (stereo not drawn) [Example 59, 3-Cyclopentyl-2-(3,4-dichlorophenyl)-N-pyrimidin-2-yl-propionamide]",103 to 105
4,"O=C(Nc1ccncn1)[C@H](CC1CCCC1)c1ccc(Cl)c(Cl)c1 [Example 60, 3-Cyclopentyl-2(R)-(3,4-dichloro-phenyl)-N-pyrimidine-4-yl-propionamide]",166.5 to 169.3
5,"CCOC(=O)Cc1csc(NC(=O)C(CC2CCCC2)c2ccc(S(=O)(=O)C(F)(F)F)cc2)n1 (stereo not drawn) [Example 62, {2-[3-Cyclopentyl-2-(4-trifluoromethanesulfonyl-phenyl)-propionylamino]-thiazol-4-yl}-acetic acid ethyl ester]",48 to 51
6,"O=C(Nc1ccc(Br)cn1)C(CC1CCCC1)c1ccc(S(=O)(=O)C(F)(F)F)cc1 (stereo not drawn) [Example 63, N-(5-Bromo-pyridin-2-yl)-3-cyclopentyl-2-(4-trifluoromethanesulfonyl-phenyl)-propionamide]",130 to 132
7,"CS(=O)(=O)c1ccc(C(CC2CCCC2)C(=O)Nc2ccc(Br)cn2)cc1[N+](=O)[O-] (stereo not drawn) [Example 66, N-(5-Bromo-pyridin-2-yl)-3-cyclopentyl-2-(4-methanesulfonyl-3-nitro-phenyl)-propionamide]",80 to 83
8,"CS(=O)(=O)c1ccc(C(CC2CCCC2)C(=O)Nc2ccc(Br)cn2)cc1Br (stereo not drawn) [Example 74, 2-(3-Bromo-4-methanesulfonyl-phenyl)-N-(5-bromo-pyridin-2-yl)-3-cyclopentyl-propionamide]",83 to 86
9,"CCS(=O)(=O)c1ccc(C(CC2CCCC2)C(=O)Nc2ccccn2)cc1 (stereo not drawn) [Example 78, 3-Cyclopentyl-2-(4-ethanesulfonyl-phenyl)-N-pyridin-2-yl-propionamide]",144 to 145
10,"CS(=O)(=O)c1ccc(C(CC2CCCC2)C(=O)Nc2nccs2)cc1S(C)(=O)=O (stereo not drawn) [Example 79, 2-(3,4-Bis-methanesulfonyl-phenyl)-3-cyclopentyl-N-thiazol-2-yl-propionamide]",104 to 107
11,"O=C(Nc1nccnn1)C(CC1CCCC1)c1ccc(Cl)c(Cl)c1 (stereo not drawn) [Example 81, 3-Cyclopentyl-2-(3,4-dichlorophenyl)-N-[1,2,4]triazin-3-yl-propionamide]",81 to 83
12,"NS(=O)(=O)c1ccc(C(CC2CCCC2)C(=O)Nc2nccs2)cc1 (stereo not drawn) [Example 82, 3-Cyclopentyl-2-(4-sulfamoyl-phenyl)-N-thiazol-2-yl-propionamide]",179 to 181
13,"O=C(Nc1nncs1)C(CC1CCCC1)c1ccc(Cl)c(Cl)c1 (stereo not drawn) [Example 83, 3-Cyclopentyl-2-(3,4-dichlorophenyl)-N-[1,3,4]thiadiazol-2-yl-propionamide]",90 to 91
14,"CCCCS(=O)(=O)c1ccc(C(CC2CCCC2)C(=O)Nc2nccs2)cc1 (stereo not drawn) [Example 86(A), 2-[4-(Butane-1-sulfonyl)-phenyl]-3-cyclopentyl-N-thiazol-2-yl-propionamide]",163 to 165
15,"CS(=O)(=O)c1ccc(C(CC2CCCC2)C(=O)Nc2ccccn2)cc1C(F)(F)F (stereo not drawn) [Example 90, 3-Cyclopentyl-2-(4-methanesulfonyl-3-trifluoromethyl-phenyl)-N-pyridin-2-yl-propionamide]",86 to 89
16,"O=C(Nc1ccc(C(F)(F)F)cn1)[C@H](CC1CCCC1)c1ccc(Cl)c(Cl)c1 [Example 101, 3-Cyclopentyl-2(R)-(3,4-dichloro-phenyl)-N-(5-trifluoromethyl-pyridin-2-yl)-propionamide]",113.8 to 117.5
17,"CNC(=O)c1ccc(NC(=O)C(CC2CCCC2)c2ccc(Cl)c(Cl)c2)nc1 (stereo not drawn) [Example 103, 6-[3-Cyclopentyl-2-(3,4-dichloro-phenyl)-propionylamino]-N-methyl-nicotinamide]",229.1 to 231.7
18,"O=C(Nc1cnccn1)C(CC1CCCC1)c1ccc(Cl)c(Cl)c1 (stereo not drawn) [Example 104, 3-Cyclopentyl-2-(3,4-dichloro-phenyl)-N-pyrazin-2-yl-propionamide]",46.5 to 51.3
19,"O=C(Nc1ccc(Br)cn1)[C@H](CC1CCCC1)c1ccc(Cl)c(Cl)c1 [Example 105, N-(5-Bromo-pyridin-2-yl)-3-cyclopentyl-2(R)-(3,4-dichloro-phenyl)-propionamide]",107.3 to 109.9

# More lines, now with the values ahead:
row,melting point [°C],Compound
1,170 to 173,"C[S+]([O-])c1ccc(C(CC2CCCC2)C(=O)Nc2nccs2)cc1 (stereo not drawn) [Example 61, 3-Cyclopentyl-2-(4-methanesulfinyl-phenyl)-N-thiazol-2-yl-propionamide]"
2,68 to 72,"O=C(Nc1nccs1)C(CC1CCCC1)c1ccc(Cl)c([N+](=O)[O-])c1 (stereo not drawn) [Example 64, 2-(4-Chloro-3-nitro-phenyl)-3-cyclopentyl-N-thiazol-2-yl-propionamide]"
3,124 to 126,"CS(=O)(=O)c1ccc(C(CC2CCCC2)C(=O)Nc2nccs2)cc1NO (stereo not drawn) [Example 67, 3-Cyclopentyl-2-(3-hydroxyamino-4-methanesulfonyl-phenyl)-N-thiazol-2-yl-propionamide]"
4,207 to 209,"CS(=O)(=O)c1ccc(C(CC2CCCC2)C(=O)Nc2nccs2)cc1N (stereo not drawn) [Example 68, 2-(3-Amino-4-methanesulfonyl-phenyl)-3-cyclopentyl-N-thiazol-2-yl-propionamide]"
5,61 to 64,"O=C(Nc1nccs1)C(CC1CCCC1)c1cccc(S(=O)(=O)C(F)(F)F)c1 (stereo not drawn) [Example 69, 3-Cyclopentyl-N-thiazol-2-yl-2-(3-trifluoromethanesulfonyl-phenyl)-propionamide]"
6,194 to 195,"O=C(Nc1nccs1)C(CC1CCCC1)c1ccc(C(F)(F)F)c(F)c1 (stereo not drawn) [Example 70, 3-Cyclopentyl-2-(3-fluoro-4-trifluoromethyl-phenyl)-N-thiazol-2-yl-propionamide]"
7,64 to 66,"N#Cc1ccc(C(CC2CCCC2)C(=O)Nc2nccs2)cc1 (stereo not drawn) [Example 84(A), 2-(4-Cyano-phenyl)-3-cyclopentyl-N-thiazol-2-yl-propionamide]"
8,125 to 127,"O=C(Nc1nccs1)C(CC1CCCC1)c1ccc(F)c(C(F)(F)F)c1 (stereo not drawn) [Example 87(A), 3-Cyclopentyl-2-(4-fluoro-3-trifluoromethyl-phenyl)-N-thiazol-2-yl-propionamide]"
9,134 to 136,"O=C(Nc1nccs1)C(CC1CCCC1)c1cccc(C(F)(F)F)c1 (stereo not drawn) [Example 88, 3-Cyclopentyl-N-thiazol-2-yl-2-(3-trifluoromethyl-phenyl)-propionamide]"
10,171 to 174,"O=C(Nc1nccs1)C(CC1CCCC1)c1cccc([N+](=O)[O-])c1 (stereo not drawn) [Example 109, 3-Cyclopentyl-2-(3-nitrophenyl)-N-thiazol-2-yl-propionamide]"
11,44 to 45,"COc1cccc(C(CC2CCCC2)C(=O)Nc2nccs2)c1 (stereo not drawn) [Example 110, 3-Cyclopentyl-2-(3-methoxy-phenyl)-N-thiazol-2-yl-propionamide]"
